In patent US11247972B2, “Compositions and methods for treating toxoplasmosis, cryptosporidiosis, and other apicomplexan protozoan related diseases” (University of Washington through its Center for …, priority 2010, dated 2022):

Columns and labels:
PfCDPK1 = PfCDPK1 (Plasmodium falciparum (isolate 3D7), UniProt P62344); experiment: biochemical; settings: read-out: PfCDPK1 (% inhibition @ 3 uM)
PfCDPK4 = PfCDPK4 (Plasmodium falciparum (isolate 3D7), UniProt Q8IBS5); experiment: biochemical; settings: read-out: PfCDPK4 (% inhibition @ 3 uM)

| Structure (SMILES) | inhibition at 3 µM (PfCDPK1) | inhibition at 3 µM (PfCDPK4) |
| --- | --- | --- |
| CC(C)n1nc(-c2cccc3ccccc23)c2c(N)ncnc21 [Compound 7o, 1-isopropyl-3-(naphthalen-1-yl)-1H-pyrazolo[3,4-d]pyrimidin-4-amine] | 58% | 79% |
| CC(C)n1nc(-c2ccc3ccccc3c2)c2c(N)ncnc21 [Compound 7p, 1-isopropyl-3-(naphthalen-2-yl)-1H-pyrazolo[3,4-d]pyrimidin-4-amine] | 95% | 98% |
| CCOc1ccc2cc(-c3nn(C(C)C)c4ncnc(N)c34)ccc2c1 [Compound 7r, 3-(6-ethoxynaphthalen-2-yl)-1-isopropyl-1H-pyrazolo[3,4-d]pyrimidin-4-amine] | 94% | 99% |
| COc1cc2ccccc2cc1-c1nn(C(C)C)c2ncnc(N)c12 [Compound 7s, 1-isopropyl-3-(3-methoxynaphthalen-2-yl)-1H-pyrazolo[3,4-d]pyrimidin-4-amine] | 53% | 20% |
| CC(C)n1nc(-c2ccc3c(c2)OCO3)c2c(N)ncnc21 [Compound 7u, 3-(benzo[d][1,3]dioxol-5-yl)-1-isopropyl-1H-pyrazolo[3,4-d]pyrimidin-4-amine] | 94% | 77% |
| CC(C)n1nc(-c2cccc(-c3ccccc3)c2)c2c(N)ncnc21 [Compound 7z, 3-(biphenyl-3-yl)-1-isopropyl-1H-pyrazolo[3,4-d]pyrimidin-4-amine] | 79% | 21% |
| CC(C)c1nc(-c2ccc3ccccc3c2)c2c(N)nccn12 [Compound 8, 3-isopropyl-1-(naphthalen-2-yl)imidazo[1,5-a]pyrazin-8-amine] | 92% | 92% |
| CC(C)c1nc(-c2cnc3ccccc3c2)c2c(N)nccn12 [Compound 9, 3-isopropyl-1-(quinolin-3-yl)imidazo[1,5-a]pyrazin-8-amine] | 76% | 88% |
| CCOc1ccc2cc(-c3nc(C(C)C)n4ccnc(N)c34)ccc2c1 [Compound 10, 1-(6-ethoxynaphthalen-2-yl)-3-isopropylimidazo[1,5-a]pyrazin-8-amine] | 93% | 94% |
| CC(C)Oc1ccc2cc(-c3nn(C(C)C)c4ncnc(N)c34)ccc2c1 [Compound 11, 3-(6-isopropoxynaphthalen-2-yl)-1-isopropyl-1H-pyrazolo[3,4-d]pyrimidin-4-amine] | 93% | 87% |
| CCCOc1ccc2cc(-c3nn(C(C)C)c4ncnc(N)c34)ccc2c1 [Compound 12, 1-isopropyl-3-(6-propoxynaphthalen-2-yl)-1H-pyrazolo[3,4-d]pyrimidin-4-amine] | 95% | 91% |
| Nc1ncnc2c1c(Cc1cccc3ccccc13)nn2CC1CCCCC1 [Compound 17, 1-(cyclohexylmethyl)-3-(naphthalen-1-ylmethyl)-1H-pyrazolo[3,4-d]pyrimidin-4-amine] | 44% | 5% |
| CC(C)n1nc(-c2cccc(OCc3ccccc3Cl)c2)c2c(N)ncnc21 [Compound 21, 3-(3-(2-chlorobenzyloxy)phenyl)-1-isopropyl-1H-pyrazolo[3,4-d]pyrimidin-4-amine] | 68% | 9% |
| COc1cc(COc2cccc(-c3nn(C(C)C)c4ncnc(N)c34)c2)cc(OC)c1 [Compound 22, 3-(3-(3,5-dimethoxybenzyloxy)phenyl)-1-isopropyl-1H-pyrazolo[3,4-d]pyrimidin-4-amine] | 71% | 9% |
| COc1ccc(-c2nn(C(C)C)c3ncnc(N)c23)cc1OC(C)C [Compound 23, 3-(3-isopropoxy-4-methoxyphenyl)-1-isopropyl-1H-pyrazolo[3,4-d]pyrimidin-4-amine] | 75% | 11% |
| COc1ccc2cc(-c3nn(CC4CCNCC4)c4ncnc(N)c34)ccc2c1 [Compound 28, 3-(6-methoxynaphthalen-2-yl)-1-(piperidin-4-ylmethyl)-1H-pyrazolo[3,4-d]pyrimidin-4-amine] | 92% | 99% |
| Nc1ncnc2c1c(-c1cnc3ccccc3c1)nn2CC1CCNCC1 [Compound 30, 1-(piperidin-4-ylmethyl)-3-(quinolin-3-yl)-1H-pyrazolo[3,4-d]pyrimidin-4-amine] | 82% | 86% |
| Nc1ncnc2c1c(Cc1cccc3ccccc13)nn2Cc1c[nH]cn1 [Compound 31, 1-((1H-imidazol-4-yl)methyl)-3-(naphthalen-1-ylmethyl)-1H-pyrazolo[3,4-d]pyrimidin-4-amine] | 51% | 40% |

| Structure (SMILES) | inhibition at 3 µM (PfCDPK1) | inhibition at 3 µM (PfCDPK4) |
| --- | --- | --- |
| Nc1ncnc2c1c(-c1ccc3cc(OCc4ccc(Cl)cc4)ccc3c1)nn2CC1CCNCC1 [Compound 39, 3-(6-(4-chlorobenzyloxy)naphthalen-2-yl)-1-(piperidin-4-ylmethyl)-1H-pyrazolo[3,4-d]pyrimidin-4-amine] | 102% | 98% |
| CC(C)n1nc(-c2ccc3cc(OCc4ccccc4)ccc3c2)c2c(N)ncnc21 [Compound 40, 3-(6-(benzyloxy)naphthalen-2-yl)-1-isopropyl-1H-pyrazolo[3,4-d]pyrimidin-4-amine] | 101% | 84% |
| C=CCOc1ccc2cc(-c3nn(C(C)C)c4ncnc(N)c34)ccc2c1 [Compound 41, 3-(6-(allyloxy)naphthalen-2-yl)-1-isopropyl-1H-pyrazolo[3,4-d]pyrimidin-4-amine] | 101% | 98% |
| CCCCOc1ccc2cc(-c3nn(C(C)C)c4ncnc(N)c34)ccc2c1 [Compound 42, 3-(6-butoxynaphthalen-2-yl)-1-isopropyl-1H-pyrazolo[3,4-d]pyrimidin-4-amine] | 101% | 94% |
| CC(C)COc1ccc2cc(-c3nn(C(C)C)c4ncnc(N)c34)ccc2c1 [Compound 43, 3-(6-isobutoxynaphthalen-2-yl)-1-isopropyl-1H-pyrazolo[3,4-d]pyrimidin-4-amine] | 100% | 78% |
| CC(C)COc1ccc2cc(-c3nn(CC4CCNCC4)c4ncnc(N)c34)ccc2c1 [Compound 44, 3-(6-isobutoxynaphthalen-2-yl)-1-(piperidin-4-ylmethyl)-1H-pyrazolo[3,4-d]pyrimidin-4-amine] | 100% | 97% |
| Nc1ncnc2c1c(-c1ccc(Cl)cc1)nn2CC1CCNCC1 [Compound 45, 3-(4-chlorophenyl)-1-(piperidin-4-ylmethyl)-1H-pyrazolo[3,4-d]pyrimidin-4-amine] | 101% | 82% |
| CC(C)n1nc(-c2ccc3cc(OCc4ccccc4Cl)ccc3c2)c2c(N)ncnc21 [Compound 46, 3-(6-(2-chlorobenzyloxy)naphthalen-2-yl)-1-isopropyl-1H-pyrazolo[3,4-d]pyrimidin-4-amine] | 95% | 52% |
| CC(C)n1nc(-c2ccc3cc(OCc4cccc(Cl)c4)ccc3c2)c2c(N)ncnc21 [Compound 47, 3-(6-(3-chlorobenzyloxy)naphthalen-2-yl)-1-isopropyl-1H-pyrazolo[3,4-d]pyrimidin-4-amine] | 91% | 51% |
| Cc1ccc(C)c(COc2ccc3cc(-c4nn(C(C)C)c5ncnc(N)c45)ccc3c2)c1 [Compound 48, 3-(6-(2,5-dimethylbenzyloxy)naphthalen-2-yl)-1-isopropyl-1H-pyrazolo[3,4-d]pyrimidin-4-amine] | 84% | 10% |
| Cc1ccccc1COc1ccc2cc(-c3nn(C(C)C)c4ncnc(N)c34)ccc2c1 [Compound 49, 1-isopropyl-3-(6-(2-methylbenzyloxy)naphthalen-2-yl)-1H-pyrazolo[3,4-d]pyrimidin-4-amine] | 88% | 22% |
| Cc1ccc(C(F)(F)F)cc1COc1ccc2cc(-c3nn(C(C)C)c4ncnc(N)c34)ccc2c1 [Compound 50, 1-isopropyl-3-(6-(2-methyl-5-(trifluoromethyl)benzyloxy)naphthalen-2-yl)-1H-pyrazolo[3,4-d]pyrimidin-4-amine] | 83% | 26% |
| CC(C)n1nc(-c2ccc3cc(OCc4ccc(CC(F)(F)F)c(Cl)c4)ccc3c2)c2c(N)ncnc21 [Compound 51, 3-(6-(3-chloro-4-(2,2,2-trifluoroethyl)benzyloxy)naphthalen-2-yl)-1-isopropyl-1H-pyrazolo[3,4-d]pyrimidin-4-amine] | 86% | 92% |
| CC(C)n1nc(-c2ccc3cc(OCc4cc(F)cc(Cl)c4)ccc3c2)c2c(N)ncnc21 [Compound 52, 3-(6-(3-chloro-5-fluorobenzyloxy)naphthalen-2-yl)-1-isopropyl-1H-pyrazolo[3,4-d]pyrimidin-4-amine] | 93% | 62% |
| CC(Oc1ccc2cc(-c3nn(C(C)C)c4ncnc(N)c34)ccc2c1)c1ccccc1 (stereo not drawn) [Compound 53, 1-isopropyl-3-(6-(1-phenylethoxy)naphthalen-2-yl)-1H-pyrazolo[3,4-d]pyrimidin-4-amine] | 98% | 57% |
| CC(C)n1nc(-c2ccc3cc(OCc4ccc(C(C)(C)C)cc4)ccc3c2)c2c(N)ncnc21 [Compound 54, 3-(6-(4-tert-butylbenzyloxy)naphthalen-2-yl)-1-isopropyl-1H-pyrazolo[3,4-d]pyrimidin-4-amine] | 101% | 77% |
| CC(C)n1nc(-c2ccc3cc(OCc4ccncc4)ccc3c2)c2c(N)ncnc21 [Compound 55, 1-isopropyl-3-(6-(pyridin-4-ylmethoxy)naphthalen-2-yl)-1H-pyrazolo[3,4-d]pyrimidin-4-amine] | 100% | 94% |
| CC(C)n1nc(-c2ccc3cc(OCc4ccc(Cl)cc4)ccc3c2)c2c(N)ncnc21 [Compound 56, 3-(6-(4-chlorobenzyloxy)naphthalen-2-yl)-1-isopropyl-1H-pyrazolo[3,4-d]pyrimidin-4-amine] | 93% | 73% |
